This note sets out measurements from patent US12276654B2, “Chemical probe-dependent evaluation of protein activity and uses thereof” (The University of Chicago, priority 2017, dated 2025).

SMILES strings stand for the structures. Entries after “also recorded” stand apart in the source; their conditions may differ. Read-outs that look alike come from different tables or passages of the source.

Assay [1] deals with T1, PAFAH2 (Homo sapiens, UniProt Q99487).
T1 construct: Full-length, human ESD (NM_001984) and PAFAH2 (NM_000437) in pCMV6 entry vectors with C-terminal Myc-DDK tag
In words: ADPL quantification of PAFAH2 activity in stable PAFAH2 expressing PC3 cells. The conditions noted are these: same dose-range (0-1 μM). The format is cell-based. Here is the method: (§1) Cells were seeded in the 12-well chamber slide, typically at 10,000-30,000 cells per well (Ibidi, #81201). To get an even distribution of the cells, the chamber slide was pre-wetted with cell culture medium, drained off, and the chamber was left at room temperature for 5-10 min after seeding. Cells at 80-90% confluency were pulse treated with either FP-Bio (2 μM) in DMEM and incubated at 37° C. for 40 min or Capthepsin probe (5 μM) in complete medium and incubated at 37° C. for 3 hr. Cells were washed with PBS, fixed with 4% paraformaldehyde in PBS at room temperature for 15 minutes, washed twice with PBS for 5 minutes each at room temperature with orbital shaking and then permeabilized in 0.5% Triton X-100 in PBS at room temperature for 15 minutes. Finally, cells were washed twice with 0.05% Tween-20 in PBS for 5 minutes each at room temperature with orbital shaking.
Prior to antibody incubation, the chamber was removed and the well boundaries delineated with the hydrophobic barrier pen (Vector laboratories, #H-4000). One-drop Duolink blocking buffer (Sigma, #DUO92004) was added and the slide was incubated at 37° C. for 30 minutes in a humidified chamber. […]

Assay [2] concerns the target T2, NCEH1 (Homo sapiens, UniProt Q6PIU2).
T2 sequence (Q6PIU2 1-408): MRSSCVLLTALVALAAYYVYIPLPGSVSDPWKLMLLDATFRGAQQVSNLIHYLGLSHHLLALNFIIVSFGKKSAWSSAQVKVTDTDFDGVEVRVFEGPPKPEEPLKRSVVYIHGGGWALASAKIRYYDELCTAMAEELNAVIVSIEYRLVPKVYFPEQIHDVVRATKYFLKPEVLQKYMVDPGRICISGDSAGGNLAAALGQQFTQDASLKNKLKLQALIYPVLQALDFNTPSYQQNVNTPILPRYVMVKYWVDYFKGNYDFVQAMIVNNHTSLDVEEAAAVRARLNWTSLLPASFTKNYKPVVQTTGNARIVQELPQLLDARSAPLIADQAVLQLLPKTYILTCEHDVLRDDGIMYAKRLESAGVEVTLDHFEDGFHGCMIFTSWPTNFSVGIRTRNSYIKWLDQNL
In words: ADPL imaging and quantification of endogenous NCEH1 activity in live cells (inhibitor profiling by ADPL). The format is cell-based. Set-up: endogenous NCEH1 activity in SKOV3 cells; endogenous in cells; host or cells: SKOV3; wild-type PC3; PAFAH2-expressing PC3. The settings on record: for IC50: inhibitor 4 hr before FP-Bio (2 μM, 40 min), read-out: apparent IC50, inhibition of NCEH1 by ADPL. On the procedure:
as §1
Prior to antibody incubation, the chamber was removed and the well boundaries delineated with the hydrophobic barrier pen (Vector laboratories, #H-4000). One-drop Duolink blocking buffer (Sigma, #DUO92004) was added and the slide was incubated at 37° C. for 30 minutes in a humidified chamber. The blocking solution was removed by tapping, followed by addition of 10 μg/ml of the anti-biotin (rabbit, Abcam, #G196266) and primary antibody for the protein of interest: anti-FLAG (mouse, 4 μg/ml of Sigma, #F1804-5 mg); anti-NCEH1 (mouse, 4 μg/ml of in-house polyclonal), anti-FAAH (mouse, 4 μg/ml of Abcam, #ab54615) for serine hydrolase members. […]
For quantitative analysis single cell boundaries were identified manually using the DIC image. Then the “ROI Manager” tool in Image) was utilized to add all the cell outlines as a collection and overlay with the ADPL channel to measure per-cell fluorescence intensity. Typical quantitative comparisons were made using data from three or more independent fields of view per independent biological replicate condition. […]

As to `CC(C)c1ccccc1OC(=O)NCCc1ccc2ccccc2c1` [JW480], the “effect on PAFAH2 activity (ADPL signal)” value in assay [1] is “no inhibition of target signal was observed; also recorded: no effect”. In addition, the IC50 in assay [2] (PAFAH2 expressing PC3 cells) came out at 8 nM; in assay [2] (wild-type PC3 cells), 6 nM. Besides, the “NCEH1 activity by ADPL imaging and quantification relative to vehicle” value in assay [2] (SKOV3 cells, 1 μM, 4 hr pre-treatment before FP-Bio) was “significantly reduced”.
